Here are results for 2 compounds from patent EP4549575A1 (priority 2023, dated 2025).

Where “and” joins values, the source holds several entries; their conditions need not be identical. Identical values can stand only once. Square brackets hold non-standard residues; d marks the D form. Peptide text beside a SMILES is read from it. βAla = NCCC(=O)O

The nature of series [1]: Conformational studies based on circular dichroism. Format: physicochemical. On the procedure:
Conformational studies based on circular dichroism were performed under different conditions, such as: • 10 mM phosphate buffer, pH 7 • MES buffer 10 mM, pH 6 • Buffer acetate 10 mM, pH 5 • Phosphate buffer 10 mM/TFE (1:1) • TFE (trifluoroethanol)
Conformational studies based on circular dichroism were performed under different conditions such as: • 10 mM phosphate buffer, pH7 • Phosphate buffer 10mM/TFE, pH7 (1:1) • TFE (trifluoroethanol)
Conformational studies based on circular dichroism were performed under different conditions, such as: • 10 mM phosphate buffer, pH7 • MES buffer 10 mM, pH6 • Buffer acetate 10 mM, pH5 • Phosphate buffer 10 mM/TFE, pH7 (1:1) • TFE (trifluoroethanol)
Conformational studies based on circular dichroism were performed under different conditions, such as: • 10 mM phosphate buffer, pH7 • 10mM phosphate buffer/TFE (1:1) • TFE (trifluoroethanol)

A short description of series [2]: Chemical-physical properties (isoelectric point, net charge, solubility in water). Format: physicochemical. The following applies: for net charge: at pH 7.
The test system of a further series is P. capsici. Format: cell-based, Phytophthora capsici Leonian.
A further series deals with P. ultimum. Format: cell-based, Pythium ultimum var. ultimum Trow.
The next series concerns P. viticola. Format: in vivo, Plasmopara viticola (Berk. et Curt.) Berl. and De Toni. The following applies: grapevine (Vitis vinifera cv. Pinot noir) leaf discs; mean ± standard deviation vs untreated control; concentration not given.
In series [3] the test system is Agrobacterium tumefaciens GV3101. Description: Specificity: growth in liquid culture (OD620). Format: cell-based. The following applies: 200 µM; LB medium; measured hourly up to 5 h.
Series [4] has as its system human kidney proximal tubular cells (HKC-8).
The mark [5] stands for this setting: pH 7-TFE: phosphate buffer 10 mM/TFE (1:1).

`CSCC[C@@H]1NC(=O)[C@H](Cc2c[nH]c3ccccc23)NC(=O)[C@H](CCCNC(=N)N)NC(=O)CCNC(=O)[C@H](CCCNC(=N)N)NC(=O)[C@H](CCCNC(=N)N)NC(=O)[C@H](Cc2ccc(O)cc2)NC(=O)[C@H](C(C)C)NC(=O)[C@H](CC(C)C)NC1=O` [CP20, βA-R-W-M-L-V-Y-R-R] (cyclo(LVYRR[βAla]RWM)): in series [1] (10 mM phosphate buffer, pH 7), the “Disordered (%)” value was 32%, the “Helixes (%)” value was found to be 6%, the “Sheets (%)” value is 40% and the “Turns (%)” value was 22%. For the same compound, in series [1] (MES buffer 10 mM, pH 6), the “Disordered (%)” value was 34%, the “Helixes (%)” value was 8%, the “Sheets (%)” value was 37% and the “Turns (%)” value is recorded as 21%. For the same compound, in series [1] (TFE (trifluoroethanol)), the “Disordered (%)” value is recorded as 33%, the “Helixes (%)” value amounted to 10%, the “Sheets (%)” value stood at 35% and the “Turns (%)” value came out at 22%. Also, in series [1] (acetate buffer 10 mM, pH 5), the “Disordered (%)” value turned out to be 31%, the “Helixes (%)” value was found to be 7%, the “Sheets (%)” value turned out to be 39% and the “Turns (%)” value turned out to be 23%. In series [1] (setting [5]), the “Disordered (%)” value is 34%, the “Helixes (%)” value was found to be 8%, the “Sheets (%)” value turned out to be 36% and the “Turns (%)” value is on record as 22%. Further, in series [2], the isoelectric point is 12.4 pH, the net charge result is “+3” and the solubility in water result is given as “good solubility in water”. The “P. capsici (PIC - %)” value with P. capsici was 100% and 100 ± 0 (a) %. Moreover, in the series with P. ultimum, the “P. ultimum (IPP - %)” value was 75% and 75.98 ± 4.54 (c) %. Also, the “P. viticola (IPP - %)” value with P. viticola was 89.93 ± 11.69 (b) %. For the same compound, the “bacterial growth (OD620)” value in series [3] is given as “no alteration in bacterial growth”. For the same compound, the “cytotoxicity (cell viability, absorption at 570 nm)” value in series [4] is listed as “not toxic to human cells”.

With `CC(C)C[C@@H]1NC(=O)[C@H](CCCNC(=N)N)NC(=O)CNC(=O)CCNC(=O)[C@H](C(C)C)NC(=O)[C@H](CCCNC(=N)N)NC(=O)[C@H](CC(C)C)NC(=O)[C@H](Cc2c[nH]c3ccccc23)NC(=O)[C@H](CCCNC(=N)N)NC1=O` [CP32, βA-G-R-L-R-W-L-R-V] (cyclo(GRLRWLRV[βAla])), in series [1] (10 mM phosphate buffer, pH 7), the “Disordered (%)” value was 43%, the “Helixes (%)” value is recorded as 5%, the “Sheets (%)” value worked out at 34% and the “Turns (%)” value was determined as 18%. Further, in series [1] (TFE (trifluoroethanol)), the “Disordered (%)” value turned out to be 47%, the “Helixes (%)” value was found to be 6%, the “Sheets (%)” value came to 29% and the “Turns (%)” value is recorded as 18%. Besides, in series [1] (setting [5]), the “Disordered (%)” value is recorded as 44%, the “Helixes (%)” value stood at 5%, the “Sheets (%)” value turned out to be 33% and the “Turns (%)” value turned out to be 18%. In series [2], the isoelectric point was determined as 14 pH, the net charge entry was “+3” and the solubility in water entry was “good solubility in water”. Further, the “P. capsici (PIC - %)” value with P. capsici is 89.25 ± 7.35 (b) %. In addition, the “P. ultimum (IPP - %)” value in the series on P. ultimum is 85% and 85.42 ± 7.28 (b) %. For the same compound, in the series with P. viticola, the “P. viticola (IPP - %)” value is 95% and 94.92 ± 6.45 (b) %. In series [3], the “bacterial growth (OD620)” value is listed as “no alteration in bacterial growth”. Further, the “cytotoxicity (cell viability, absorption at 570 nm)” value in series [4] is listed as “not toxic to human cells”.
